Peptide text beside a SMILES is read from it. * marks the point of attachment. Cbz = O=C(OCc1ccccc1)*
Assays:
[1] = test system: polarized human bronchial epithelial cells; assay type: cell-based
Experimental: Primary culture of human bronchial epithelia and reagents utilized. Primary human airway epithelial cells were collected by enzymatic digestion of bronchial samples from lung transplants, as previously described (Kondo et al., 1991; Zabner et al., 1996). Isolated primary airway cells were seeded at a density of 5×10^5 cells/cm^2 onto collagen-coated Millicell-HA culture inserts (Millipore Corp., Bedford, Mass.). Primary cultures were grown at the air-liquid interface for more than 2 weeks, by which time differentiation into a mucociliary epithelium occurs. The culture medium, used to feed only the basolateral side of the cells, contained 49% DMEM, 49% Ham's F12 and 2% Ultraser G (BioSepra, Cedex, France). Dimethyl Sulphoxide (DMSO), camptothecin (Camp), etoposide (Etop), aphidicolin (Aphi), hydroxyurea (HU) and genistein (Geni) were purchased from Sigma (St. Louis, Mo.). Tripeptidyl aldehyde proteasome inhibitors N-Acetyl-L-Leucyl-L-Leucyl-Norleucine (LLnL) and benzyloxycarbonyl-L-leucyl-L-leucyl-L-leucinal (Z-LLL) were purchased from Calbiochem-Novabiochem Corporation (La Jolla, Calif.). Ubiquitin ligase (E3) inhibitors were obtained from Bachem Bioscience Inc. (King of Prussia, Pa.). Anti-AAV capsid monoclonal antibody (Anti-VP1, 2 and 3) was purchased from American Research Products (Belmont, Mass.) and anti-ubiquitin antibody was purchased from Santa Cruz Biotechnology Inc. (Santa Cruz, Calif.).
Transduction of polarized airway epithelial cells and primary human fibroblasts. rAAV infection of fully differentiated bronchial cells was performed as described in Duan et al. (1998). For infections from the apical surface of the airway cells, 5 μl rAAV was mixed with 50 μl of culture media and applied directly onto the apical compartment of Millicell inserts (MOI=10,000 particles/cell). During apical infection, the basolateral side of the Millicell was continuously bathed in culture media. Gene transfer to the basal side was performed by inverting Millicell inserts and applying viral vector to the bottom of the supporting filter membrane in a 50 μl volume for 2 hours. Subsequently, Millicell inserts were returned to the upright position, in the continued presence of the original viral inoculum plus an additional 450 μl of media. For both apical and basolateral infections, rAAV containing media was removed after 24 hours and replaced with either fresh culture media (for the basal side) or exposed to air (for the apical side). To test the effect of different agents on the efficiency of AAV transduction in polarized airway cells, 1 μl of each solution was mixed with AAV prior to infection of airway epithelia. Agents were usually presented during the 24 hours AAV infection period unless indicated otherwise. Most of the agents were dissolved in DMSO except for hydroxyurea (dissolved in phosphate buffered saline), H-Leu-Ala-OH (dissolved in 0.9% glacial acetic acid) and H-His-Ala-OH (dissolved in 50% methanol). The working concentrations of the agents were as follows: 0.1 μM camptothecin, 10 μM etoposide, 5 μg/ml aphidicolin, 40 mM hydroxyurea, 50 μM genistein, 40 μM LLnL and 4 μM Z-LLL. When the ubiquitin ligase (E3) inhibitors (H-Leu-Ala-OH and H-His-Ala-OH) were used, airway cells were pretreated with a combination of both inhibitors at a final concentration of 2 mM for 60 minutes prior to infection, followed by the continued presence of inhibitor (0.2 mM) during the entire 24 hours infection period from the basolateral surface. Studies involving EGTA treatment were performed by transiently treating the apical membrane of polarized airway epithelia with 3 mM EGTA in water for 10 minutes (Duan et al., 1998). Following hypotonic EGTA treatment, cultures were washed twice with culture medium and infected with rAAV in the presence or absence of 40 μM LLnL. Human primary fibroblast cells (P4) were maintained in 10% fetal bovine serum (FBS), 1% penicillin and streptomycin, and 89% DMEM. […]

[2] = Toxicity of proteasome inhibitors in mice; assay type: in vivo, mouse; settings: 10, 100, and 1000 fold higher effective doses; intra-tracheal and systemic (IV) delivery
Experimental: Long-term enhancement of rAAV transduction by proteasome inhibitor in vivo. To evaluate the potential utility of proteasome inhibitors for in vivo gene therapy, both the toxicity and efficacy of these agents for in vivo rAAV mediated gene transfer in the mouse lung was tested. To assess the toxicity of these proteasome inhibitors in mice, 10, 100, and 1000 fold higher effective doses of LLnL or Z-LLL were administered than used to induce gene transfer in polarized airway cells, using both intra-tracheal and systemic (IV) delivery. No toxicity was indicated by histologic evaluation of the lung and liver or was evidenced by the death of animals. To investigate whether these proteasome inhibitors could improve rAAV transduction in vivo, AV.LacZ (5×10^10 particles) was delivered either alone or in the presence of 400 μM Z-LLL by intranasal administration. Mouse lungs were harvested at 3, 10 and 150 days post-infection to evaluate short and long term effects. […] Targeted transgene expression was predominantly confined to the conducting airways, rather than in the parenchyma. Alveolar cells were rarely transduced. […] The range of transgene expression in distal and proximal airways was 0 to 4% and 5 to 18%, respectively.

[3] = test system: mouse lung airway epithelium; assay: AV.LacZ gene transfer to mouse lung with Z-LLL (nasal aspiration, X-gal morphometry); assay type: in vivo; settings: 400 μM Z-LLL; 3 and 10 days post infection
Experimental: In vivo studies in mice. Animal studies were performed in accordance with the institutional guidelines of the University of Iowa. To determine the effect of the proteasome inhibitor on AAV mediated gene transfer in mouse lung, 6 week-old BALB/c mice were lightly anesthetized using a methoxyflurane chamber. AV.LacZ (5×10^10 particles) was administered alone or with 400 μM Z-LLL in a 10 μl instillation by nasal aspiration as described by Walters et al. (2000). To prevent unforeseen toxicity of DMSO solvent, the proteasome inhibitor Z-LLL was dissolved in ethanol as a 40 mM stock solution and was included in the viral inoculum at 1% final concentration. Viral infection controls in the absence of Z-LLL also contained a 1% final concentration of ethanol. […] Lungs (N=3 for each condition) were embedded in OCT (optimal cutting temperature; Baxter, Warrendale, Pa.) and 15 μm serially sections were analyzed for gene transfer by calculating the percentage of positive cells in the airway epithelium. The diameter of the airway was recorded for classification (>360 μm, 260-350 μm, 160-250 μm, <150 μm) of results following morphometric analysis. Greater than 150 airway cross-sections were quantified for each experimental condition.

mouse lung = assay: AV2Luc / AV2/5Luc gene transfer to BL6 mouse lung with Z-LLL and/or Dox; assay type: in vivo; settings: 200 μM
HeLa cells = assay: AV2eGFP versus scAV2eGFP expression in Hela cells with hydroxyurea; assay type: cell-based; settings: 5 mM pretreatment; 24 hours post-infection
Experimental: A set of viral vectors was prepared of half-genome length was prepared. Four GFP-based viruses were generated for this analysis (AV2eGFP, scAV2eGFP, AV2/5eGFP, and scAV2/5eGFP that had either 4.7 kb or 2.4 kb length genomes packaged into AAV2 or AAV5 capsids. The data AAV2 capsid viruses were identical to data for rAAV5 viruses. Functional confirmation of scAAV/dsAAV structure was performed by analysis of gene conversion and gene expression rates in Hela cells, sensitivity of transduction in Hela cells to the DNA synthesis inhibitor hydroxyurea (HU), and by denaturing NaHO gel electrophoresis. Polarized airway epithelia were infected with the various vector constructs from the apical membrane in the presence and absence of applied LLnL at the time of infection. Gene expression was monitored by quantitative morphometry of GFP fluorescence at various post-infection time points.

Row | SMILES | augmentation in transgene expression ([1]; applied to the serosal surface along with rAAV, 2 days post infection, LLnL 40 μM) | toxicity (histologic evaluation of lung and liver, death of animals) [2] | transgene expression (X-gal staining of lung) [3] | induction of transgene expression from AV2/5 vectors (mouse lung) | rAAV transduction from the apical surface ([1]; apical infection, data not shown) | effect on gene expression from AV2eGFP and scAV2eGFP (HeLa cells)
1 | CC(C)C[C@@H](C=O)NC(=O)[C@H](CC(C)C)NC(=O)[C@H](CC(C)C)NC(=O)OCc1ccccc1 [Z-LLL, N-carbobenzoxyl-L-leucinyl-L-leucinyl-L-leucinal] (Cbz-Leu-Leu-Leu-aldehyde) | A similar result was achieved | No toxicity | no detectable transgene expression | 10 fold |  | 
2 | NC(=O)NO [hydroxyurea] |  |  |  |  | none of these agents facilitated rAAV transduction from the apical surface | significantly decreased gene expression from AV2eGFP but not scAV2eGFP virus

From patent publication US7749491B2, “Compounds and methods to enhance rAAV transduction” (priority 2003, dated 2010)
